# Source: paper PMC12892976, “Alkylation-based optimization of antifungal FPPS inhibitors yields a potent, broad-spectrum lipophilic zoledronate derivative” (mBio, 2025)
# Like-named read-outs stand apart in the source and are kept apart here.
# Assays:
# [1] = test system: Cryptococcus neoformans; experiment: checkerboard drug interaction (FICI, MICc);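 for all read-outs here: antifungal plus FPPS inhibitor pairs tested against Cryptococcus neoformans by simplified diagonal checkerboard screening, FICI computed under the Loewe additivity model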; assay type: cell-based; details: for INH MICc: C. neoformans
# Description: (§1) Drug interactions between antifungals and FPPS inhibitors were investigated using a simplified checkerboard diagonal screening method ([45]). […] FICIs were determined according to the Loewe additivity model ([17]).
# [2] = test system: Trichophyton rubrum; experiment: MIC/MFC broth microdilution (CLSI)
# Description: (§2) Antifungal susceptibility was determined by broth microdilution according to the CLSI guidelines described in M27-Ed4 ([16]). […] MFC was determined by back-plating drug-treated cultures from MIC broths onto SDA plates. The MFC was defined as the lowest concentration from which no colonies could be cultured.
# [3] = test system: Cryptococcus deuterogattii; experiment: checkerboard drug interaction (FICI, MICc);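 for all read-outs here: simplified diagonal checkerboard screen pairing antifungal drugs with FPPS inhibitors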; assay type: cell-based; details: for INH MICc: C. deuterogattii
# Description: as §1
# [4] = test system: Trichophyton rubrum; experiment: checkerboard drug interaction (FICI, MICc); assay type: cell-based;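 note: simplified diagonal checkerboard screen pairing azole antifungals with FPPS inhibitors, FICI calculated under the Loewe additivity model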
# Description: as §1
# [5] = test system: eight fungal species; experiment: MIC/MFC summary across the eight fungal species of Table 1; assay type: cell-based
# Description: The antifungal activity of these compounds was evaluated according to CLSI guidelines ([16]).
# [6] = test system: Candida glabrata; experiment: checkerboard drug interaction (FICI, MICc);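 for all read-outs here: simplified diagonal checkerboard screen pairing antifungals with FPPS inhibitors, FICI calculated under the Loewe additivity model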; assay type: cell-based; details: for INH MICc: C. glabrata
# Description: as §1
# [7] = test system: Cryptococcus neoformans; experiment: MIC/MFC broth microdilution (CLSI);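 note: susceptibility testing followed the CLSI M27-Ed4 broth microdilution document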
# Description: as §2
# [8] = test system: Candida glabrata; experiment: MIC/MFC broth microdilution (CLSI);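 note: broth microdilution following CLSI M27-Ed4, MFC taken as the lowest drug level yielding no growth once MIC wells were subcultured on SDA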
# Description: as §2
# [9] = test system: Saccharomyces cerevisiae; experiment: MIC/MFC broth microdilution (CLSI); assay type: cell-based; details: Saccharomyces cerevisiae S288c
# Description: as §2
# [10] = test system: Aspergillus flavus; experiment: checkerboard drug interaction (FICI, MICc); assay type: cell-based; set-up: INH MICc (KET:INH) / INH MICc (FLC:INH): unit not given beside the values;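 note: simplified diagonal checkerboard screen pairing azole antifungals with FPPS inhibitors, FICI calculated under the Loewe additivity model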
# [11] = test system: Aspergillus niger; experiment: MIC broth microdilution (CLSI); assay type: cell-based; details: Aspergillus niger 111
# Description: (§3) Antifungal susceptibility was determined by broth microdilution according to the CLSI guidelines described in M27-Ed4 ([16]).
# [12] = test system: Aspergillus fumigatus; experiment: MIC/MFC broth microdilution (CLSI); details: ATCC204305
# Description: as §2
# [13] = test system: Saccharomyces cerevisiae; experiment: checkerboard drug interaction (FICI, MICc); assay type: cell-based; set-up: INH MICc / INH MICc (ITR:INH) / INH MICc (KET:INH) / INH MICc (FLC:INH): unit not given beside the values;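 note: simplified diagonal checkerboard screen pairing antifungals with FPPS inhibitors, FICI calculated under the Loewe additivity model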
# [14] = test system: Candida albicans; experiment: checkerboard drug interaction (FICI, MICc);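 for all read-outs here: antifungal plus FPPS inhibitor combinations on Candida albicans tested by a simplified diagonal checkerboard screen, with FICI calculated under the Loewe additivity model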; assay type: cell-based; details: for INH MICc: C. albicans
# Description: as §1
# [15] = test system: Candida tropicalis; experiment: checkerboard drug interaction (FICI, MICc); assay type: cell-based;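 note: simplified diagonal checkerboard screen of antifungal plus FPPS inhibitor combinations, with FICI computed by the Loewe additivity model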
# Description: as §1
# [16] = test system: Candida albicans; experiment: MIC/MFC broth microdilution (CLSI); assay type: cell-based; details: Candida albicans SC5314
# Description: as §2
# [17] = test system: eight fungal species; experiment: checkerboard interaction with azoles, summary across the eight species; assay type: cell-based
# Source text: Synergy between lipophilic FPPS inhibitors and azole antifungals was investigated by determining the fractional inhibitory concentration index (FICI) (Fig. 2; Table S1 Fig. S1) ([17]). […]. Derivatives PLA9 and 11, and PDA9, 11, and 12 antagonized azoles in C. albicans, C. neoformans, and C. deuterogattii, yet were largely synergistic in C. glabrata and S. cerevisiae. […].
# [18] = test system: Cryptococcus deuterogattii; experiment: MIC/MFC broth microdilution (CLSI);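 note: broth microdilution per CLSI M27-Ed4. MFC is the lowest concentration yielding no colonies when MIC broths are subcultured onto SDA plates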
# Description: as §2
# [19] = test system: Aspergillus fumigatus; experiment: checkerboard drug interaction (FICI, MICc); assay type: cell-based;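 note: simplified diagonal checkerboard screen pairing antifungals with FPPS inhibitors against Aspergillus fumigatus, with FICI calculated under the Loewe additivity model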
# Description: as §1
# [20] = test system: Nannizzia gypsea; experiment: MIC broth microdilution (CLSI); assay type: cell-based; details: Nannizzia gypsea R-131
# Description: as §3
# [21] = test system: Aspergillus flavus; experiment: MIC/MFC broth microdilution (CLSI); details: ATCC204304
# Description: as §2
# [22] = FLC:INH combination, MIC of the inhibitor in combination with FLC
# [23] = ITR:INH combination, MIC of the inhibitor in combination with ITR
# [24] = KET:INH combination, MIC of the inhibitor in combination with KET
structure (smiles),measurement,setting,value
"CCCCCCCCCCn1cc[n+](CC(O)(P(=O)(O)O)P(=O)(O)O)c1 [10-ZOL, Decyl-zoledronate]",INH MICc,[1]; [22],0.125
same,INH MICc,[1]; [23],0.063
same,INH MICc,[1]; [24],0.063
same,bisphosphonate MICc,[1]; with 5FC,0.5
same,bisphosphonate MICc,[1]; with AMB,0.25
same,bisphosphonate MICc,[1]; with CAS,0.5
same,bisphosphonate MICc,[1]; with FLC,0.125
same,bisphosphonate MICc,[1]; with ITR,0.063
same,bisphosphonate MICc,[1]; with KET,0.063
same,bisphosphonate MICc,[1]; with VOR,0.25
same,MFC,[2]; Trichophyton rubrum,64 µg/mL
same,MIC,[2]; Trichophyton rubrum,1 µg/mL
same,MIC / MEC,[2]; Trichophyton rubrum R-218,2 µg/mL
same,INH MICc,[3]; [22],0.125
same,INH MICc,[3]; [23],0.125
same,INH MICc,[3]; [24],0.063
same,bisphosphonate MICc,[3]; with 5FC,1
same,bisphosphonate MICc,[3]; with AMB,0.063
same,bisphosphonate MICc,[3]; with CAS,1
same,bisphosphonate MICc,[3]; with FLC,0.125
same,bisphosphonate MICc,[3]; with ITR,0.125
same,bisphosphonate MICc,[3]; with KET,0.063
same,bisphosphonate MICc,[3]; with VOR,0.063
same,FICI,[4]; KET:10-ZOL,0.5
same,INH MICc (FLC:INH),"[4]; T. rubrum, MIC of the inhibitor in combination with fluconazole",0.5
same,INH MICc (ITR:INH),"[4]; T. rubrum, MIC of the inhibitor in combination with itraconazole",0.5
same,INH MICc (KET:INH),"[4]; T. rubrum, MIC of the inhibitor in combination with ketoconazole",0.5
same,FICI,[4]; VOR:10-ZOL,0.5
same,bisphosphonate MICc,[4]; with 5FC,1
same,bisphosphonate MICc,[4]; with AMB,0.25
same,bisphosphonate MICc,[4]; with CAS,0.5
same,bisphosphonate MICc,[4]; with FLC,0.5
same,bisphosphonate MICc,[4]; with ITR,0.5
same,bisphosphonate MICc,[4]; with KET,0.5
same,bisphosphonate MICc,[4]; with VOR,0.5
same,Geometric mean MFC,[5]; across eight species,4.8 µg/mL
same,Geometric mean MIC,[5]; across eight species,1.2 µg/mL
same,MFC,"[5]; across eight species, read-out: Geometric mean MFC",4.8 µg/mL
same,range of MICs across the tested fungal species,[5]; eight species,0.5 to 4 µg/mL
same,MIC,"[5]; geometric mean across eight species, read-out: GM fungal MIC",1.2 µg/mL
same,MIC,[5]; read-out: Geometric mean MIC,1.2 µg/mL
same,INH MICc,[6]; [22],0.125
same,INH MICc,[6]; [23],0.063
same,INH MICc,[6]; [24],0.031
same,bisphosphonate MICc,[6]; with 5FC,0.125
same,bisphosphonate MICc,[6]; with AMB,0.25
same,bisphosphonate MICc,[6]; with CAS,0.25
same,bisphosphonate MICc,[6]; with FLC,0.125
same,bisphosphonate MICc,[6]; with ITR,0.063
same,bisphosphonate MICc,[6]; with KET,0.031
same,bisphosphonate MICc,[6]; with VOR,0.03125
same,MFC,[7]; Cryptococcus neoformans,2 µg/mL
same,MIC,[7]; Cryptococcus neoformans,1 µg/mL
same,MIC / MEC,[7]; Cryptococcus neoformans H99,0.5 µg/mL
same,MIC / MEC,[8]; Candida glabrata CBS138 (ATCC 2001),0.5 µg/mL
same,MFC,"[8]; Nakaseomyces glabratus, CBS138",1 µg/mL
same,MIC,"[8]; Nakaseomyces glabratus, CBS138",0.5 µg/mL
same,MFC,[9],8 µg/mL
same,MIC,[9],1 µg/mL
same,MIC / MEC,[9],1 µg/mL
same,INH MICc (FLC:INH),"[10]; A. flavus, MIC of the inhibitor in combination with fluconazole",0.063
same,INH MICc (ITR:INH),"[10]; A. flavus, MIC of the inhibitor in combination with itraconazole",0.125
same,INH MICc (KET:INH),"[10]; A. flavus, MIC of the inhibitor in combination with ketoconazole",0.125
same,FICI,[10]; AMB:10-ZOL,2
same,FICI,[10]; FLC:10-ZOL,0.53
same,FICI,[10]; VOR:10-ZOL,0.37
same,bisphosphonate MICc,[10]; with 5FC,1
same,bisphosphonate MICc,[10]; with AMB,2
same,bisphosphonate MICc,[10]; with CAS,2
same,bisphosphonate MICc,[10]; with FLC,0.063
same,FICI,"[10]; with FLC, Aspergillus flavus",0.53
same,bisphosphonate MICc,[10]; with ITR,0.125
same,bisphosphonate MICc,[10]; with KET,0.125
same,bisphosphonate MICc,[10]; with VOR,0.5
same,MIC / MEC,[11],4 µg/mL
same,MFC,[12],2 µg/mL
same,MIC,[12],1 µg/mL
same,MIC / MEC,[12],1 µg/mL
same,FICI,[13]; 5FC:10-ZOL,2
same,FICI,[13]; ITR:10-ZOL,1
same,FLC MICc,"[13]; S. cerevisiae, FLC:INH combination, MIC of FLC in combination with the inhibitor",1
same,INH MICc,"[13]; S. cerevisiae, FLC:INH combination, MIC of the inhibitor in combination with FLC",0.5
same,FICI,"[13]; S. cerevisiae, ITR:INH combination",1
same,ITR MICc,"[13]; S. cerevisiae, ITR:INH combination, MIC of ITR in combination with the inhibitor",0.125
same,INH MICc,"[13]; S. cerevisiae, ITR:INH combination, MIC of the inhibitor in combination with ITR",0.5
same,KET MICc,"[13]; S. cerevisiae, KET:INH combination, MIC of KET in combination with the inhibitor",0.25
same,INH MICc,"[13]; S. cerevisiae, KET:INH combination, MIC of the inhibitor in combination with KET",0.25
same,bisphosphonate MICc,[13]; with 5FC,1
same,bisphosphonate MICc,[13]; with AMB,0.25
same,bisphosphonate MICc,[13]; with CAS,0.063
same,bisphosphonate MICc,[13]; with FLC,0.5
same,bisphosphonate MICc,[13]; with ITR,0.5
same,FICI,"[13]; with ITR, Saccharomyces cerevisiae",1.00
same,bisphosphonate MICc,[13]; with KET,0.25
same,bisphosphonate MICc,[13]; with VOR,0.25
same,INH MICc,[14]; [22],0.0625
same,INH MICc,[14]; [23],0.25
same,INH MICc,[14]; [24],0.125
same,bisphosphonate MICc,[14]; with 5FC,0.5
same,bisphosphonate MICc,[14]; with AMB,0.25
same,bisphosphonate MICc,[14]; with CAS,1
same,bisphosphonate MICc,[14]; with FLC,0.0625
same,bisphosphonate MICc,[14]; with ITR,0.25
same,bisphosphonate MICc,[14]; with KET,0.125
same,bisphosphonate MICc,[14]; with VOR,0.25
same,FICI,[15]; 5FC:10-ZOL,1.5
same,FICI,[15]; CAS:10-ZOL,≥4
same,FICI,[15]; VOR:10-ZOL,0.5
same,bisphosphonate MICc,[15]; with 5FC,1
same,bisphosphonate MICc,[15]; with AMB,0.125
same,bisphosphonate MICc,[15]; with CAS,1
same,bisphosphonate MICc,[15]; with FLC,1
same,bisphosphonate MICc,[15]; with ITR,0.125
same,bisphosphonate MICc,[15]; with KET,0.25
same,bisphosphonate MICc,[15]; with VOR,0.5
same,MFC,[16],16 µg/mL
same,MIC,[16],4 µg/mL
same,MIC / MEC,[16],4 µg/mL
same,effect on azole MIC in combination,[17]; across all species tested,consistently reduced the MIC of the azole
same,antagonism with azole drugs,[17]; any of the azole drugs in any species tested,no antagonism
same,GM fungal MICc,[17]; geometric mean MIC in combination with azoles,0.1
same,MFC,[18]; Cryptococcus deuterogattii,2 µg/mL
same,MIC,[18]; Cryptococcus deuterogattii,1 µg/mL
same,MIC / MEC,[18]; Cryptococcus deuterogattii R265,1 µg/mL
same,FICI,[19]; 5FC:10-ZOL,3
same,FLC MICc,"[19]; A. fumigatus, FLC:INH combination, MIC of FLC in combination with the inhibitor",8
same,INH MICc,"[19]; A. fumigatus, FLC:INH combination, MIC of the inhibitor in combination with FLC",0.5
same,ITR MICc,"[19]; A. fumigatus, ITR:INH combination, MIC of ITR in combination with the inhibitor",0.063
same,INH MICc,"[19]; A. fumigatus, ITR:INH combination, MIC of the inhibitor in combination with ITR",0.063
same,KET MICc,"[19]; A. fumigatus, KET:INH combination, MIC of KET in combination with the inhibitor",0.25
same,INH MICc,"[19]; A. fumigatus, KET:INH combination, MIC of the inhibitor in combination with KET",0.25
same,FICI,[19]; CAS:10-ZOL,1.5
same,bisphosphonate MICc,[19]; with 5FC,1
same,bisphosphonate MICc,[19]; with AMB,0.25
same,bisphosphonate MICc,[19]; with CAS,1
same,bisphosphonate MICc,[19]; with FLC,0.5
same,bisphosphonate MICc,[19]; with ITR,0.063
same,bisphosphonate MICc,[19]; with KET,0.25
same,bisphosphonate MICc,[19]; with VOR,0.25
same,MIC / MEC,[20],0.5 µg/mL
same,MFC,[21],4 µg/mL
same,MIC,[21],2 µg/mL
same,MIC / MEC,[21],2 µg/mL
